Read-outs that look alike come from different tables or passages of the source.
Columns and labels:
[1] = tested on: KKAY mice; assay: Hypoglycemic and hypolipidemic actions in mice (Test Example 1); assay type: in vivo; conditions: Mus musculus, po, 96 h, 0.005% in powdery diet, four days, non-treated group taken as 100%
Protocol: Test compounds were mixed in a powdery diet (CE-2, Japan Clea) at the concentration of 0.005%, and freely given to KKAY mice (9 to 12 weeks old, 5 mice in a group), a model of obese and non-insulin dependent diabetes (type 2 diabetes), for four days. During this period, water was given freely. Blood was sampled from orbital venous plexus, and glucose and triglyceride levels in plasma separated from blood were determined enzymatically using L type Wako Glu2 (Wako Pure Chemical Industries, Ltd.) or L type Wako TG·H (Wako Pure Chemical Industries, Ltd.), respectively.
In the table, “hypoglycemic action (%)” means the rate of decrease (%) in the blood glucose level of the treated group when the blood glucose level of the non-treated group is taken as 100%. In addition, the “hypolipidemic action (%)” means the rate of decrease (%) in the blood triglyceride level of the treated group when the blood triglyceride level of the non-treated group is taken as 100%.

[2] = target: T1, PPARγ-RXRα heterodimer (Homo sapiens, UniProt P37231); assay: PPARγ-RXRα heterodimer ligand activity, luciferase reporter in PPARγ:RXRα:4ERPP/CHO-K1 cells (Test Example 3); assay type: cell-based; conditions: 18-48 hours, concentration for 50% of the maximum fold induction
T1 construct: expressed in transfected cells; host or cells: CHO-K1
T1 sequence (P37231 1-477 isoform P37231-2): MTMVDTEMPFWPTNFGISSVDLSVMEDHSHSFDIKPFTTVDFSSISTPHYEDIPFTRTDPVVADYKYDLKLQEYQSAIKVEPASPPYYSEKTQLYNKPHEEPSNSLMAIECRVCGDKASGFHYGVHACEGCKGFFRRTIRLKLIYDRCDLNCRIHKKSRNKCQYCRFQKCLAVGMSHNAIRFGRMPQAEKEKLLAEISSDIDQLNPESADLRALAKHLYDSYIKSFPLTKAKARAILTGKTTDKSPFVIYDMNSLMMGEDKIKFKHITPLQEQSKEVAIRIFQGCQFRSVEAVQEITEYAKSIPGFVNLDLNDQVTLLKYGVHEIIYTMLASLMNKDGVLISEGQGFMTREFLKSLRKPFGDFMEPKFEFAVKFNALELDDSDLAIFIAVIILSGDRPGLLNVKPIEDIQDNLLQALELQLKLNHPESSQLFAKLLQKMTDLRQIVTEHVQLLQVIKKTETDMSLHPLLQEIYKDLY
T1 sequence (P19793 1-462 partner): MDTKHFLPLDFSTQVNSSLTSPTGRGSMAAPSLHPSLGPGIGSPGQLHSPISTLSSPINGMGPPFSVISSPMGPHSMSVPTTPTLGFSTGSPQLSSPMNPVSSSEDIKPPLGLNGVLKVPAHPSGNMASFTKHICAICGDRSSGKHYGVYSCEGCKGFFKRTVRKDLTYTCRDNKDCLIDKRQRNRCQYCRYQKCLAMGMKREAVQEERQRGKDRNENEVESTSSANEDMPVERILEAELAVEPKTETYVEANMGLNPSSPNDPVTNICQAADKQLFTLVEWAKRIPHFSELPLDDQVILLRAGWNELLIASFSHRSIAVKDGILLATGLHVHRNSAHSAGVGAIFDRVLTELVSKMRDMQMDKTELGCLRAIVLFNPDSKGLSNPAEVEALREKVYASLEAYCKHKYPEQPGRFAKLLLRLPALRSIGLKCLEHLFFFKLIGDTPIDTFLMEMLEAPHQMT
Protocol: A PPARγ: RXRα: 4ERPP/CHO-K1 cells obtained in Reference Example 8a described later were cultured in HAM F12 medium (produced by Life Technologies, Inc., USA) containing 10% Fetal bovine serum (produced by Life Technologies, Inc., USA) and then inoculated to a 96-well white plate (produced by Corning Costar Corporation, USA) at the density of 2×10^4 cells/well, and cultured in a CO2 gas incubator at 37° C. overnight.
After removing the medium from 96 well white plate, 80 μl of HAM F12 medium containing 0.1% fatty acid-free bovine serum albumin (BSA) and 20 μl of test compound were added, which was cultured in a CO2 gas incubator at 37° C. for 18-48 hours. After removing the medium, 40 μl of PIKKAGENE 7.5 (produced by Wako Pure Chemical Industries, Ltd.) diluted twice with HBSS (HANKS' BALANCED SALT SOLUTION)(produced by BIO WHITTAKER Inc., USA), was added. After stirring, the luciferase activity was determined using 1420 ARVO Multilabel Counter (produced by PerkinElmer Inc., USA).
A fold induction was calculated based on the luciferase activity of each test compound by taking the luciferase activity in the non-treatment group as 1. The values of the test compound concentration and the fold induction were analyzed using PRISM (produced by GraphPad Software Inc. USA) to calculate the EC50 values, the effective concentration of a test compound for 50% of the maximum fold induction.
After a CHO-K1 cell cultured in a 150 cm^2 cell culture flask (750 ml)(produced by Corning Costar Corporation, USA) containing HAM F12 medium (produced by Life Technologies, Inc., USA) supplemented with 10% Fetal Bovine Serum (produced by Life Technologies, Inc., USA) was scraped by treating with 0.5 g/L trypsin-0.2 g/L EDTA (ethylenediaminetetraacetic acid) (produced by Life Technologies, Inc., USA), the cell was washed with PBS (phosphate-buffered saline) (produced by Life Technologies, Inc., USA), centrifuged (1000 rpm, 5 minutes), and then suspended in PBS. Subsequently, a DNA was introduced into the cell under the condition shown below using GENE PULSER (produced by Bio-Rad Laboratories, USA).
Namely, to a cuvette having a 0.4 cm gap, added were 8×10^6 cells and 10 μg of plasmid pVgRXR2-hPPARγ obtained in Reference Example 7a and 10 μg of reporter plasmid pGL3-4ERPP-TK neo obtained in Reference Example 5a, which was subjected to electroporation at the voltage of 0.25 kV under the capacitance of 960 μF. Subsequently, the cell was transferred into a HAM F12 medium containing 10% Fetal Bovine Serum and cultured for 24 hours and then the cell was scraped again and centrifuged, and then suspended in HAM F12 medium containing 10% Fetal Bovine Serum supplemented with 500 μg/ml of GENETICIN (produced by Life Technologies, Inc., USA) and 250 μg/ml of ZEOCIN (produced by Invitrogen, USA). The obtained suspension was diluted to the density of 10^4 cells/ml and inoculated to a 96-well plate (produced by Corning Costar Corporation, USA), which was cultured in a CO2 gas incubator at 37° C., whereby obtaining a GENETICIN- and ZEOCIN-resistant transformant.
Subsequently, after the transformant cell line thus obtained was cultured in a 24-well plate (produced by Corning Costar Corporation, USA), selected was a cell line in which the luciferase was expressed and induced, i.e., PPARγ:RXRα:4ERPP/CHO-K1 cell by addition of 10 μM of pioglitazone hydrochloride.

[3] = tested on: KKAY mice; assay: Plasma anti-arteriosclerosis index-enhancing action in mice (Test Example 2); assay type: in vivo; conditions: Mus musculus, po, 96 h, 0.005% in powdery diet, four days, percent increase of (HDL cholesterol/total cholesterol)x100, non-treatment group taken as 100%
Protocol: Test compounds were mixed in a powdery diet (CE-2, Japan Clea) at the concentration of 0.005%, and freely given to KKAY mice (9 to 12 weeks old, 5 mice per group), a model of obese and non-insulin dependent diabetes (type 2 diabetes), for four days. During this period, water was given freely. Blood was sampled from orbital venous plexus and components in plasma separated from blood were determined. Total cholesterol levels were determined by using L type Wako Cholesterol (Wako Pure Chemical Industries, Ltd.). Precipitation reagent for HDL cholesterol (Wako Pure Chemical Industries, Ltd.) was added to a part of the plasma to precipitate non-HDL lipoprotein, and cholesterol (HDL cholesterol) in the resulting supernatant was determined. The plasma anti-arteriosclerosis index [(HDL cholesterol/total cholesterol)×100] was calculated by using these cholesterol levels.
In the Table, “Plasma anti-arteriosclerosis index-enhancing action (%)” represents the percent increase (%) of plasma anti-arteriosclerosis index in the treatment group, when the plasma anti-arteriosclerosis index in the non-treatment group is taken as 100%.

[4] = rate of decrease in blood glucose level, read-out: Hypoglycemic action (%)
[5] = rate of decrease in blood triglyceride level, read-out: Hypolipidemic action (%)

Row | SMILES | inhibition in vivo at 0.005 % in diet [1, 4] [%] | inhibition in vivo at 0.005 % in diet [1, 5] [%] | melting point [°C] | EC50 [2] [nM] | change in vivo at 0.005 % in diet [3] [%]
1 | CCCC(C)c1nn(-c2ccc(C(F)(F)F)cn2)cc1CCCOc1c(CC(=O)O)cccc1OC (centres unmarked) [Example 220, [3-methoxy-2-(3-{3-(1-methylbutyl)-1-[5-(trifluoromethyl)-2-pyridyl]-1H-pyrazol-4-yl}propoxy)phenyl]acetic acid] | 44 | 50 | 107 to 108 | 9.6 | –
2 | CCOc1cccc(CC(=O)O)c1OCCCc1cn(-c2ccc(C(F)(F)F)cn2)nc1C(CC)CC [Example 221, [3-ethoxy-2-(3-{3-(1-ethylpropyl)-1-[5-(trifluoromethyl)-2-pyridyl]-1H-pyrazol-4-yl}propoxy)phenyl]acetic acid] | 46 | 21 | 83 to 84 | 12 | –
3 | CCCc1nn(-c2ccc(C(F)(F)F)cn2)cc1CCCOc1c(CC)cccc1CC(=O)O [Example 229, [3-ethyl-2-(3-{3-propyl-1-[5-(trifluoromethyl)-2-pyridinyl]-1H-pyrazol-4-yl}propoxy)phenyl]acetic acid] | 41 | 49 | 146 to 147 | 21 | –
4 | CC(C)c1nn(-c2ccc(C(F)(F)F)cn2)cc1CCCOc1c(Br)cccc1CC(=O)O [Example 235, [3-bromo-2-(3-{3-isopropyl-1-[5-(trifluoromethyl)-2-pyridinyl]-1H-pyrazol-4-yl}propoxy)phenyl]acetic acid] | 43 | 64 | 146 to 147 | 26 | –
5 | CC(C)c1nn(-c2ccc(C(F)(F)F)cn2)cc1CCCOc1c(Cl)cccc1CC(=O)O [Example 239, [3-chloro-2-(3-{3-isopropyl-1-[5-(trifluoromethyl)-2-pyridinyl]-1H-pyrazol-4-yl}propoxy)phenyl]acetic acid] | 42 | 65 | 141 to 142 | 35 | –
6 | COc1cccc(CC(=O)O)c1OCCCc1cn(-c2ccc(C)cn2)nc1C(C)C [Example 272, (3-methoxy-2-{3-[3-isopropyl-1-(5-methyl-2-pyridyl)-1H-pyrazol-4-yl]propoxy}phenyl)acetic acid] | 48 | 69 | 132 to 133 | 50 | –
7 | CC(C)c1nn(-c2ccc(C(F)(F)F)cn2)cc1CCCOc1nn(C)cc1CC(=O)O [Example 299, [3-(3-{3-isopropyl-1-[5-(trifluoromethyl)-2-pyridinyl]-1H-pyrazol-4-yl}propoxy)-1-methyl-1H-pyrazol-4-yl]acetic acid] | – | – | 122 to 123 | – | 11
8 | CC(C)c1nn(-c2ccc(C(F)(F)F)cn2)cc1CCCOc1c(CC(=O)O)cnn1C [Example 318, [5-(3-{3-isopropyl-1-[5-(trifluoromethyl)-2-pyridinyl]-1H-pyrazol-4-yl}propoxy)-1-methyl-1H-pyrazol-4-yl]acetic acid] | – | – | 146 to 148 | – | 22
9 | CCn1ncc(CC(=O)O)c1OCCCc1cn(-c2ccc(C(F)(F)F)cn2)nc1C(C)C [Example 322, [1-ethyl-5-(3-{3-isopropyl-1-[5-(trifluoromethyl)-2-pyridinyl]-1H-pyrazol-4-yl}propoxy)-1H-pyrazol-4-yl]acetic acid] | – | – | 120 to 121 | – | 14
10 | CCOc1nn(-c2ccc(C(F)(F)F)cn2)cc1CCCOc1nn(CC)cc1CC(=O)O [Example 335, [3-(3-{3-ethoxy-1-[5-(trifluoromethyl)-2-pyridinyl]-1H-pyrazol-4-yl}propoxy)-1-ethyl-1H-pyrazol-4-yl]acetic acid] | – | – | 108 to 109 | – | 12
11 | COc1cccc(CC(=O)O)c1OCCCc1cn(-c2ccc(C#N)nn2)nc1C(C)C [Example 337, (2-{3-[1-(6-cyanopyridazin-3-yl)-3-isopropyl-1H-pyrazol-4-yl]propoxy}-3-methoxyphenyl)acetic acid] | 44 | 48 | – | – | 24

— patent US20060148858A1, “1, 2-Azole derivatives with hypoglycemic and hypolipidemic activity” (priority 2002, published 2006)
